In patent US9260400B2, “I-arylpiperazinic ligands of 5-HT7 receptor and use thereof” (UNIVERSITA' DEGLI STUDI DI BARI “ALDO MORO”, priority 2011, dated 2016):

Legend:
[1] = target: T1, human cloned 5-HT7 receptor (Homo sapiens, UniProt P34969); assay: Radioligand binding assay at human cloned 5-HT7 receptors ([3H]-5-CT competition); settings: read-out: 5-HT7 (pKi) (converted)
T1 construct: expressed in transfected cells
Description: Radioligand Binding Assay At Human Cloned 5-HT7 Receptors
Functionality assays on the 5-HT7 receptor were done according to Jasper et al [Br. J. Pharmacol. 1997, 122, 126.] with minor modifications. The test is a competition assay based on binding of [^3H]-5-CT at human cloned 5-HT7 receptor. In 0.5 mL of incubation buffer (50 mM Tris-HCl, 10 mM MgSO4 and 0.5 mM EDTA, pH 7.4) were suspended 34 μg of membranes, 1.5 nM [^3H]-5-CT, the drugs or reference compound (six to nine concentrations). The samples were incubated for 120 min at 27° C. The incubation was stopped by rapid filtration on Whatman GF/C glass microfiber filters (pre-soaked in 0.3% polyethylenimine for 30 min). The filters were washed with 3×1 mL of ice-cold buffer (50 mM Tris-HCl, pH 7.4). Nonspecific binding was determined in the presence of 10 μM 5-CT. Approximately 90% of specific binding was determined under these conditions.
(§1) Competition binding data were analyzed using the GraphPad Prism Software (GraphPad Software, Inc., San Diego, Calif., USA). The value for the inhibition constant, Ki, was calculated by using the Cheng-Prusoff equation [Anal. Biochem. 1980, 107, 200-239].

[2] = target: T2, Human 5-HT1A serotonin receptors (Homo sapiens, UniProt P08908); assay: Radioligand binding assay at human cloned 5-HT1A receptor ([3H]-8-OH-DPAT); settings: compound at 10−7M
T2 construct: expressed in transfected cells; host or cells: HEK293-EBNA
T2 sequence (P08908 1-422): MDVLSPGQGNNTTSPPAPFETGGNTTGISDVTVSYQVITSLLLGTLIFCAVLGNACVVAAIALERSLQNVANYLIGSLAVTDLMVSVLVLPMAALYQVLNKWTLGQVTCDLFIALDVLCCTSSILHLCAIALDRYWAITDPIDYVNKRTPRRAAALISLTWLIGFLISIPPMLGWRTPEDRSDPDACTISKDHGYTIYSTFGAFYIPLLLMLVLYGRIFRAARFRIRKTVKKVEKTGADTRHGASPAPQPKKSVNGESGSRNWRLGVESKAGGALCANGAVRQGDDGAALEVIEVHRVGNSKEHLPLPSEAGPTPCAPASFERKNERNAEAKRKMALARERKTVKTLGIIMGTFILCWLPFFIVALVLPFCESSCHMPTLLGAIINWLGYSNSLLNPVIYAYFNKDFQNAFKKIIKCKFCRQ
Description: Radioligand Binding Assay At Human Cloned 5-HT1A Receptor
Human 5-HT1A serotonin receptors stably expressed in HEK293-EBNA cells were radiolabeled with 1.0 nM [^3H]-8-OH-DPAT [J. Biol. Chem. 1989, 264, 14848]. Samples containing 32 μg of membrane protein, different concentrations of each compound ranging from 0.1 nM to 10 μM were incubated in a final volume of 500 μL of 50 mM Tris-HCl pH 7.4, 5 mM MgSO4 for 120 min at […]. After this incubation time, samples were filtered through Whatman GF/C glass microfiber filters pre-soaked in polyethylenimine 0.5% for at least 30 min prior to use. The filters were washed twice with 1 ml of ice-cold buffer (50 mM Tris-HCl, pH 7.4). Nonspecific binding was determined in the presence of 10 μM 5-HT.
as §1

[3] = In vitro metabolic stability using liver S9 fractions; type: in vitro ADME; settings: 10 μM compound, 1 mg/ml rat liver S9, 30 min at 37° C.
Description: Determination of in vitro Metabolic Stability Using Liver S9 Fractions
Tested compounds (10 μM) were incubated with rat liver S9 fractions (1 mg/ml), liver S9 fractions are subcellular fractions that contain drug-metabolizing enzymes such as cytochromes P450, flavin monooxygenases, and UDP glucuronyl transferases.
The incubation was performed in 100 mM phosphate buffer (pH 7.4) containing 1.3 mM of NADP+, 3.3 mM glucose 6-phosphate and 0.4 U/ml glucose 6-phosphate dehydrogenase, 3.3 mM MgCl2 in a total volume of 1 mL. Incubations were commenced with the addition of glucose 6-phosphate dehygrogenase and carried out for 30 min. at 37° C. The reaction was stopped by adding 1 mL of cooled acetonitrile. The samples were centrifuged at 4600 rpm for 10 min at 4° C. The supernatant was separated and the acetonitrile phase was analyzed by using a reversed-phase HPLC equipped with a Perkin-Elmer series 200 LC pump and a Perkin-Elmer 785A UV/VIS detector. UV signals were monitored and obtained peaks integrated using a personal computer running Perkin-Elmer Turbochrom Software. The column used was a Phenomenex Gemini C-18 (250×4.6 mm, 5 μm particle size). The samples were eluted with ammonium formate (20 mM; pH 6.7) and acetonitrile 80:20 v/v at a flow rate of 1 mL/min and at the appropriate UV wavelength. The sample injection volume was 20 μL.
This assay provides information on the xenobiotic metabolism of the tested compounds; the results obtained are reported in table 1.

[4] = after 20 minutes following i.p injection; cited from earlier work

T1 sequence (P34969 whole entry): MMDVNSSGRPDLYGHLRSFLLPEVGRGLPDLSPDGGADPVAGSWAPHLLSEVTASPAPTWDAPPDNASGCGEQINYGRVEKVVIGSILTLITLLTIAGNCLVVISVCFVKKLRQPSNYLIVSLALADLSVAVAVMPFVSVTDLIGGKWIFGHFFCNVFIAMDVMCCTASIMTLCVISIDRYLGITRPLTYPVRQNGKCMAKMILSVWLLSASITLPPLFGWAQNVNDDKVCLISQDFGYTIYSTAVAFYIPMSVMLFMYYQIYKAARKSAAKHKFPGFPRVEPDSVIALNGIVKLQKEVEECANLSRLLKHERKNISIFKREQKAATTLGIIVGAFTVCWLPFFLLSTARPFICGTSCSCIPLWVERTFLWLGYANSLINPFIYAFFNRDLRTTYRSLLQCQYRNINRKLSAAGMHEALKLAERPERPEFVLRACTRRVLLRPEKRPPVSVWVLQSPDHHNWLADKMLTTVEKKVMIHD

| Compound | Ki [1] | 5-HT1A (% displacement of radioligand at 10−7M conc.) [2] | % parent compound after incubation with rat liver S9 fractions [3] | plasma and brain concentration [4] |
| --- | --- | --- | --- | --- |
| FCCOc1ccc(OCCN2CCN(c3ncccc3-c3ccccn3)CC2)cc1 [Example 18, 1-[2-[4-(2-Fluoroethoxy)phenoxy]ethyl]-4-[3-(2-pyridyl)-2-pyridyl]piperazine] | 20 nM | 20% | 68% | – |
| COc1cccc(OCCN2CCN(c3ncccc3-c3ccccn3)CC2)c1 [Example 15, 1-[2-(3-Methoxyphenoxy)ethyl]4-[3-(2-pyridyl)-2-pyridyl]piperazine] | 5.37 nM | 35% | 78% | – |
| COc1ccc(-c2ccccc2N2CCN(CCCCCC(=O)NCc3ccccn3)CC2)cc1 [Example 21, 4-[2-(4-Methoxyphenyl)phenyl]-N-(2-pyridinylmethyl)-1-piperazinehexanamide] | 1.62 nM | 37% | 55% | – |
| COc1ccc(CNC(=O)CCCCCN2CCN(c3ncccc3-c3ccccn3)CC2)cc1 [Example 24, N-[(4-Methoxyphenyl)methyl]-6-[4-[3-(2-pyridyl)-2-pyridyl]piperazin-1-yl]hexanamide] | 5.75 nM | 31% | 80% | – |
| CSc1ccccc1N1CCN(CCCCCC(=O)NC2CCCc3ccccc32)CC1 (stereo not shown) [LP-44] | – | – | – | undetectable |
| COc1cccc(C(F)CN2CCN(c3ncccc3-c3ccccn3)CC2)c1 (stereo not shown) [Example 12, 1-[2-Fluoro-2-(3-methoxyphenyl)ethyl]-4-[3-(2-pyridyl)-2-pyridyl)piperazine] | 6.92 nM | 25% | 84% | – |
| COc1ccc(OCC(O)CN2CCN(c3ccccc3-c3ccccc3)CC2)cc1 (stereo not shown) [Example 1, 1-(4-Methoxyphenoxy)-3-[4-(2-biphenyl)piperazin-1-yl] propan-2-ol] | 16.6 nM | 46% | 35% | – |
| COc1ccc(OCC(O)CN2CCN(c3ncccc3-c3ccncc3)CC2)cc1 (stereo not shown) [Example 5, 1-(4-Methoxyphenoxy)-3-[4-[3-(4-pyridyl)-2-pyridyl]piperazin-1-yl]propan-2-ol] | 7.59 nM | 26% | 82% | – |
